From the supplement of paper PMC13380429
± gives the standard deviation of the averaged measurements.

Tests used:
Conditions in all cases: 72 h
U2OS [1] = assay: cell viability relative to DMSO; higher = less toxic
Caco-2 [2] = assay: as above
HepG2 [3] = assay: as above
Vero E6 [4] = assay: as above
Calu-3 [5] = assay: as above
U2OS [6] = assay: drug sensitivity score (DSS) for viability; higher = more toxic; extreme values may be limits of the assay
Caco-2 [7] = assay: as above
HepG2 [8] = assay: as above
Vero E6 [9] = assay: as above
Calu-3 [10] = assay: as above
U2OS [11] = assay: relative viability EC50 (midpoint between 100% and the lowest measured viability); higher = less toxic
Caco-2 [12] = assay: as above
HepG2 [13] = assay: as above
Vero E6 [14] = assay: as above
Calu-3 [15] = assay: as above

SMILES | cell viability (U2OS [1]; 1 nM) | cell viability (U2OS [1]; 10 nM) | cell viability (U2OS [1]; 100 nM) | cell viability (U2OS [1]; 1000 nM) | cell viability (U2OS [1]; 10000 nM) | cell viability (Caco-2 [2]; 1 nM) | cell viability (Caco-2 [2]; 10 nM) | cell viability (Caco-2 [2]; 100 nM) | cell viability (Caco-2 [2]; 1000 nM) | cell viability (Caco-2 [2]; 10000 nM) | cell viability (HepG2 [3]; 1 nM) | cell viability (HepG2 [3]; 10 nM) | cell viability (HepG2 [3]; 100 nM) | cell viability (HepG2 [3]; 1000 nM) | cell viability (HepG2 [3]; 10000 nM) | cell viability (Vero E6 [4]; 1 nM) | cell viability (Vero E6 [4]; 10 nM) | cell viability (Vero E6 [4]; 100 nM) | cell viability (Vero E6 [4]; 1000 nM) | cell viability (Vero E6 [4]; 10000 nM) | cell viability (Calu-3 [5]; 1 nM) | cell viability (Calu-3 [5]; 10 nM) | cell viability (Calu-3 [5]; 100 nM) | cell viability (Calu-3 [5]; 1000 nM) | cell viability (Calu-3 [5]; 10000 nM) | drug sensitivity score (U2OS [6]) | drug sensitivity score (Caco-2 [7]) | drug sensitivity score (HepG2 [8]) | drug sensitivity score (Vero E6 [9]) | drug sensitivity score (Calu-3 [10]) | relative viability EC50 (U2OS [11]) | relative viability EC50 (Caco-2 [12]) | relative viability EC50 (HepG2 [13]) | relative viability EC50 (Vero E6 [14]) | relative viability EC50 (Calu-3 [15])
CCCNC(C)(C)COC(=O)c1ccccc1 [meprylcaine] | 98.6% | 98.2% | 103% | 97.7% | 99.5% | 98.1% | 104% | 94.3% | 106% | 96.6% | 86.3% | 100% | 94% | 95.6% | 91.9% | 96% | 103% | 91.8% | 95.2% | 103% | 102% | 112% | 105% | 99.9% | 94.5% | 0 | 0 | 0 | 0 | 0 | > 10 µM | > 10 µM | > 10 µM | > 10 µM | > 10 µM
N=C(N)NCc1cccc(I)c1 [iobenguane] | 97.6% | 99.8% | 99.1% | 95.2% | 95.9% | 114% | 100% | 118% | 85.6% | 81.4% | 104% | 91.6% | 79.8% | 79.3% | 83% | 100% | 104% | 111% | 102% | 87.7% | 110% | 98.9% | 107% | 111% | 98.6% | 0 | 1.7 | 6.1 | 0 | 0 | > 10 µM | > 10 µM | > 10 µM | > 10 µM | > 10 µM
O=C1CC[C@@](c2ccccc2)(C2CCN(Cc3ccc(I)cc3)CC2)C(=O)N1 [iododexetimide] | 98.8% | 95.5% | 94.3% | 100% | 90.4% | 89% | 104% | 98.1% | 97.7% | 93.9% | 107% | 96.4% | 92.5% | 87.5% | 83.6% | 98.7% | 100% | 102% | 100% | 93% | 97.8% | 110% | 102% | 107% | 104% | 0 | 0 | 1.4 | 0 | 0 | > 10 µM | > 10 µM | > 10 µM | > 10 µM | > 10 µM
CC1(C)[C@@H](OC(=O)CCC(=O)O)CC[C@]2(C)[C@H]3C(=O)C=C4[C@@H]5C[C@@](C)(C(=O)O)CC[C@]5(C)CC[C@@]4(C)[C@]3(C)CC[C@@H]12 [CARBENOXOLONE SODIUM] | 107% | 99.8% | 101% | 103% | 104% | 94.4% | 96.6% | 92.3% | 99.1% | 99% | 97.8% | 98% | 113% | 96.6% | 91.2% | 100% | 49.3% | 101% | 59.6% | 99.2% | 88.9% | 102% | 92.8% | 106% | 96% | 0 | 0 | 0 | 0 | 0 | > 10 µM | > 10 µM | > 10 µM | > 10 µM | > 10 µM
O[C@H]1CC[C@H](Nc2nc(-c3ccccc3)nc3[nH]ccc23)CC1 [SLV-320] | 99.5% | 94.4% | 97.7% | 95.7% | 96.9% | 102% | 94.4% | 102% | 102% | 102% | 92.8% | 106% | 94.9% | 99.2% | 91.7% | 104% | 109% | 101% | 99% | 91.4% | 99.5% | 93.9% | 99.5% | 90.8% | 102% | 0 | 0 | 0 | 0 | 0 | > 10 µM | > 10 µM | > 10 µM | > 10 µM | > 10 µM
O=c1ncccn1[C@@H]1O[C@H](CO)[C@@H](O)[C@H]1O [zebularine] | 97.8% | 99.2% | 96.8% | 101% | 92.6% | 103% | 102% | 104% | 97.9% | 101% | 113% | 97.5% | 111% | 101% | 103% | 99.6% | 99.1% | 102% | 97.9% | 99.1% | 94.4% | 102% | 85.9% | 96.7% | 84.4% | 0 | 0 | 0 | 0 | 0.3 | > 10 µM | > 10 µM | > 10 µM | > 10 µM | > 10 µM
O=C(O)C1(C(=O)O)CCC1.[NH2-].[NH2-].[Pt+2] [carboplatin] | 94.3% | 95.9% | 93.2% | 100% | 108% | 97.8% | 102% | 85.4% | 94.9% | 100% | 106% | 98.7% | 99.5% | 90.7% | 103% | 99.6% | 92.5% | 103% | 98.4% | 109% | 90.8% | 98.8% | 93.6% | 90.7% | 106% | 0 | 0 | 0 | 0 | 0 | > 10 µM | > 10 µM | > 10 µM | > 10 µM | > 10 µM
Cc1cccc(Oc2nc3c(C)cccn3c(=O)c2/C=C(\C#N)c2nc3ccccc3s2)c1 | 95.2% | 99.1% | 96% | 102% | 106% | 93.1% | 98.3% | 98.3% | 94% | 98.6% | 100% | 90.2% | 101% | 94.6% | 100% | 103% | 95.5% | 99.4% | 91.4% | 106% | 97% | 94.1% | 98.6% | 102% | 112% | 0 | 0 | 0 | 0 | 0 | > 10 µM | > 10 µM | > 10 µM | > 10 µM | > 10 µM
N[C@@H](CC(=O)N1CCn2c(nnc2C(F)(F)F)C1)Cc1cc(F)c(F)cc1F [sitagliptin] | 97.5% | 94.6% | 97.4% | 94.8% | 97.7% | 108% | 99.5% | 97.1% | 102% | 84.1% | 89.2% | 98.9% | 91.1% | 97.5% | 88.6% | 97.7% | 106% | 90.7% | 107% | 102% | 107% | 100% | 99.5% | 106% | 97.7% | 0 | 0.2 | 0 | 0 | 0 | > 10 µM | > 10 µM | > 10 µM | > 10 µM | > 10 µM
Cc1cccc(C(C)c2c[nH]cn2)c1C (stereo not given) [medetomidine] | 100 ± 2.2% | 96.1 ± 0.71% | 102 ± 5.5% | 94.5 ± 0.42% | 97.6 ± 6.1% | 97.85 ± 0.35% | 88 ± 1.9% | 99.2 ± 5.2% | 100 ± 3.1% | 99.1 ± 1.6% | 92.5 ± 2.5% | 106 ± 1.3% | 101 ± 2.7% | 102 ± 9.6% | 111.4 ± 0.14% | 95.3 ± 0.57% | 97.5 ± 0.99% | 92.5 ± 3.8% | 99.75 ± 0.071% | 101 ± 3.2% | 104 ± 2.5% | 98.5 ± 14% | 103 ± 2.5% | 105 ± 11% | 95.2 ± 0.57% | 0 | 0 | 0 | 0 | 0 | > 10 µM | > 10 µM | > 10 µM | > 10 µM | > 10 µM
O=C1N=C2SCCN2C(=O)C1Cc1ccc(Cl)cc1 (stereo not given) [nuclomedone] | 98.4% | 97.6% | 95.6% | 95.6% | 96.4% | 93.1% | 96.5% | 91.9% | 92.2% | 94.9% | 93.7% | 89.1% | 95.3% | 96.4% | 92% | 96.9% | 95.5% | 95.1% | 104% | 93.4% | 91.5% | 104% | 95.5% | 99.9% | 90.5% | 0 | 0 | 0 | 0 | 0 | > 10 µM | > 10 µM | > 10 µM | > 10 µM | > 10 µM
